Data as given in US20120088753A1, “PYRROLOPYRIMIDINES AND USED AS KINASE INHIBITORS” (MEDICAL RESEARCH COUNCIL TECHNOLOGY, priority 2009, published 2012).

biological target: T1, TBK1 (Homo sapiens, UniProt Q9UHD2); experiment: TBK1 protein kinase assay ([γ-33P]ATP filter-plate, IC50 from 10 concentrations); type: biochemical; details: 50 μM ATP, peptide substrate 300 μM, 30 min, 21° C.; read-out: Potency score (TBK1 IC50)
T1 construct: All protein kinases were of human origin and encoded full length proteins, unless indicated otherwise; His6; made in house; host or cells: insect Sf21 cells
T1 sequence (Q9UHD2 1-729): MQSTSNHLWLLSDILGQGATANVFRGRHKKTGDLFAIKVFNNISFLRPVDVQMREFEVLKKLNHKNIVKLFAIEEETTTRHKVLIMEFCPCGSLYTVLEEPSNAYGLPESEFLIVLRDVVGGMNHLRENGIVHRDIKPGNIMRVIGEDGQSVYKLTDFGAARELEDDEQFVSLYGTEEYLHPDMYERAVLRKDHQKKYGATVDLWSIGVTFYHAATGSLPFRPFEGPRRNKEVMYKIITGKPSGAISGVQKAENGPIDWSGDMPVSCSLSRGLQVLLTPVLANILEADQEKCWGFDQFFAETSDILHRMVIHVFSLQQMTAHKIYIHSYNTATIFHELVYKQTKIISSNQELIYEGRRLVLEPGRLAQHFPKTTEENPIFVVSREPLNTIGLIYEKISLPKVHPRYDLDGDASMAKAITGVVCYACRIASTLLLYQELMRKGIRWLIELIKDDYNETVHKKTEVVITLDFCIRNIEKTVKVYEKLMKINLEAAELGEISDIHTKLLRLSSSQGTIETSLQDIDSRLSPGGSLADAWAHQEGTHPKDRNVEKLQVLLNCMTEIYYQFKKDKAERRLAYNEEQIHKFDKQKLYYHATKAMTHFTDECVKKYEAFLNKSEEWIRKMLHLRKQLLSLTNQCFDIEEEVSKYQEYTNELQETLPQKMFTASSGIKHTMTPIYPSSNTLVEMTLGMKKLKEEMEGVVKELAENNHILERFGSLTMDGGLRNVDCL
Text: All protein kinases were of human origin and encoded full length proteins, unless indicated otherwise. They were either expressed as glutathione S-transferase (GST) fusion proteins in Escherichia Coli or as hexahistidine (His6)-tagged proteins in insect Sf21 cells. GST fusion proteins were purified by affinity chromatography on glutathione-Sepharose, and His6-tagged proteins on nickel/nitriloacetate-agarose. The procedures for expressing some of the protein kinases used herein have been detailed previously.^8,9 The following sections outline the DNA vectors synthesised and the procedures used to express and purifying protein kinases that have not been reported previously.
The following kinases were expressed in Sf21 cells: Aurora B and Aurora C, extra-cellular signal-regulated kinase 8 (ERK8), microtubule affinity regulating kinase 3 (MARK3), protein kinase Bα[118-480][S473D], protein kinase Bβ (PKBβ[120-481][S474D], 3-phosphoinositide-dependent protein kinase-1 [52-556] (PDK1[52-556], IKKε, TBK1,
All assays (25.5 μl) were carried out at room temperature (21° C.) and were linear with respect to time and enzyme concentration under the conditions used. Assays were performed for 30 min using Multidrop Micro reagent dispensers (Thermo Electron Corporation, Waltham, Mass. 02454, USA) in a 96-well format. The concentration of magnesium acetate in the assays was 10 mM and the [γ-33P] ATP (800 cpm/pmol) was used at 5, 20 or 50 μM as indicated, in order to be at or below the Km for ATP for each enzyme. Protein kinases assayed at 5 μM ATP were: ERK1, ERK8, PKBα, MARK3, Aurora C. Protein kinases assayed at 20 μM ATP were: JNK1, PDK1, CHK1, CHK2, CDK2 and Aurora B. Protein kinases assayed at 50 μM ATP were: MNK2, IKKepsilon and TBK1.
The assays were initiated with MgATP, stopped by addition of 5 μl of 0.5 M orthophosphoric acid and spotted on to P81 filterplates using a unifilter harvester (PerkinElmer, Boston, Mass. 02118, USA). The IC50 values of inhibitors were determined after carrying out assays at 10 different concentrations of each compound.
ERK1 and ERK8 were both assayed against myelin basic protein (MBP, 0.33 mg/ml). MARK3 was assayed against the peptide […] (300 μM), MNK2 against the eIF4E protein (0.5 mg/ml). PKBβ was assayed against the peptide GRPRTSSFAEGKK (30 μM). TBK1 were assayed against ([…]) (300 μM). The substrates used for other protein kinases were described previously.^8,9
Unless stated otherwise, enzymes were diluted in 50 mM Tris/HCl pH 7.5, 0.1 mM EGTA, 1 mg/ml BSA, 0.1% (v/v) 2-mercaptoethanol and assayed in 50 mM Tris/HCl pH 7.5, 0.1 mM EGTA, 0.1% (v/v) 2-mercaptoethanol.

IC50 [nM] | Compound
100 to 1000 | CCCC(=O)NCCCn1ccc2cnc(Nc3ccc(N4CCOCC4)nc3)nc21 [Example 26, N-{3-[2-(6-Morpholin-4-yl-pyridin-3-ylamino)-pyrrolo[2,3-d]pyrimidin-7-yl]-propyl}-butyramide]
< 100 | O=C(NCCCn1ccc2cnc(Nc3cccc(F)c3)nc21)C1CCC1 [Example 27, Cyclobutanecarboxylic acid {3-[2-(3-fluoro-phenylamino)-pyrrolo[2,3-d]pyrimidin-7-yl]-propyl}-amide]
< 100 | CC(=O)Nc1cccc(Nc2ncc3ccn(CCCNC(=O)C4CCC4)c3n2)c1 [Example 28, Cyclobutanecarboxylic acid {3-[2-(3-acetylamino-phenylamino)-pyrrolo[2,3-d]pyrimidin-7-yl]-propyl}-amide]
100 to 1000 | O=C(NCCCn1ccc2cnc(Nc3cccc(N4CCCC4=O)c3)nc21)C1CCC1 [Example 29, Cyclobutanecarboxylic acid (3-{2-[3-(2-oxo-pyrrolidin-1-yl)-phenylamino]-pyrrolo[2,3-d]pyrimidin-7-yl}-propyl)-amide]
< 100 | O=C(NCCCn1ccc2cnc(Nc3ccc(N4CCOCC4)nc3)nc21)C1CCC1 [Example 30, Cyclobutanecarboxylic acid {3-[2-(6-morpholin-4-yl-pyridin-3-ylamino)-pyrrolo[2,3-d]pyrimidin-7-yl]propyl}-amide]
100 to 1000 | CN1CCN(c2ccc(Nc3ncc4ccn(CCCNC(=O)C5CCC5)c4n3)cn2)CC1 [Example 31, Cyclobutanecarboxylic acid (3-{2-[6-(4-methyl-piperazin-1-yl)-pyridin-3-ylamino]-pyrrolo[2,3-d]pyrimidin-7-yl}-propyl)-amide]
100 to 1000 | O=C(NCCCn1ccc2cnc(Nc3cccc(F)c3)nc21)C1CCCC1 [Example 32, Cyclopentanecarboxylic acid {3-[2-(3-fluoro-phenylamino)-pyrrolo[2,3-d]pyrimidin-7-yl]-propyl}-amide]
< 100 | CC(=O)Nc1cccc(Nc2ncc3ccn(CCCNC(=O)C4CCCC4)c3n2)c1 [Example 33, Cyclopentanecarboxylic acid {3-[2-(3-acetylamino-phenylamino)-pyrrolo[2,3-d]pyrimidin-7-yl]-propyl}-amide]
< 100 | O=C(NCCCn1cc(Cl)c2cnc(Nc3cccc(F)c3)nc21)C1CCC1 [Example 34, Cyclobutanecarboxylic acid {3-[5-chloro-2-(3-fluoro-phenylamino)-pyrrolo[2,3-d]pyrimidin-7-yl]-propyl}-amide]
< 100 | O=C(NCCCn1cc(Cl)c2cnc(Nc3ccc(N4CCOCC4)nc3)nc21)C1CCC1 [Example 35, Cyclobutanecarboxylic acid {3-[5-chloro-2-(6-morpholin-4-yl-pyridin-3-ylamino)-pyrrolo[2,3-d]pyrimidin-7-yl]-propyl}-amide]
< 100 | O=C(NCCCn1cc(Br)c2cnc(Nc3cccc(F)c3)nc21)C1CCC1 [Example 36, Cyclobutanecarboxylic acid {3-[5-bromo-2-(3-fluoro-phenylamino)-pyrrolo[2,3-d]pyrimidin-7-yl]-propyl}-amide]
100 to 1000 | N#Cc1cn(CCCNC(=O)C2CCC2)c2nc(Nc3cccc(F)c3)ncc12 [Example 37, Cyclobutanecarboxylic acid {3-[5-cyano-2-(3-fluoro-phenylamino)-pyrrolo[2,3-d]pyrimidin-7-yl]-propyl}-amide]
100 to 1000 | O=C(NCCCn1cc(Cl)c2cnc(Nc3cccc(F)c3)nc21)c1cccs1 [Example 38, Thiophene-2-carboxylic acid {3-[5-chloro-2-(3-fluoro-phenylamino)-pyrrolo[2,3-d]pyrimidin-7-yl]-propyl}-amide]
< 100 | O=C(NCCCn1ccc2cnc(Nc3ccc(N4CCCC4=O)cc3)nc21)C1CCC1 [Example 39, Cyclobutanecarboxylic acid (3-{2-[4-(2-oxo-pyrrolidin-1-yl)-phenylamino]-pyrrolo[2,3-d]pyrimidin-7-yl}-propyl)-amide]
< 100 | O=C(NCCCn1ccc2cnc(Nc3ccc4[nH]ncc4c3)nc21)C1CCC1 [Example 40, Cyclobutanecarboxylic acid {3-[2-(1H-indazol-5-ylamino)-pyrrolo[2,3-d]pyrimidin-7-yl]-propyl}-amide]
< 100 | O=C(NCCCn1ccc2cnc(Nc3cccc(-n4cncn4)c3)nc21)C1CCC1 [Example 41, Cyclobutanecarboxylic acid {3-[2-(3-1,2,4-triazol-1-yl-phenylamino)-pyrrolo[2,3-d]pyrimidin-7-yl]-propyl}-amide]
< 100 | O=C(NCCCn1ccc2cnc(Nc3cccnc3)nc21)C1CCC1 [Example 43, Cyclobutanecarboxylic acid {3-[2-(pyridin-3-ylamino)-pyrrolo[2,3-d]pyrimidin-7-yl]-propyl}-amide]
< 100 | Cn1ncc2cc(Nc3ncc4ccn(CCCNC(=O)C5CCC5)c4n3)cnc21 [Example 44, Cyclobutanecarboxylic acid {3-[2-(1-methyl-1H-pyrazolo[3,4-b]pyridin-5-ylamino)-pyrrolo[2,3-d]pyrimidin-7-yl]-propyl}-amide]
< 100 | O=C(NCCCn1ccc2cnc(Nc3ccc4nccn4c3)nc21)C1CCC1 [Example 45, Cyclobutanecarboxylic acid {3-[2-(imidazo[1,2-a]pyridin-6-ylamino)-pyrrolo[2,3-d]pyrimidin-7-yl]-propyl}amide]
< 100 | O=C(NCCCn1ccc2cnc(Nc3ccc4nccnc4c3)nc21)C1CCC1 [Example 46, Cyclobutanecarboxylic acid {3-[2-(quinoxalin-6-ylamino)-pyrrolo[2,3-d]pyrimidin-7-yl]-propyl}-amide]
< 100 | CCn1cc(Nc2ncc3ccn(CCCNC(=O)C4CCC4)c3n2)cn1 [Example 47, Cyclobutanecarboxylic acid {3-[2-(1-ethyl-1H-pyrazol-4-ylamino)-pyrrolo[2,3-d]pyrimidin-7-yl]-propyl}-amide]
< 100 | O=C(NCCCn1ccc2cnc(Nc3cccc(N4CCOCC4)c3)nc21)C1CCC1 [Example 48, Cyclobutanecarboxylic acid {3-[2-(3-morpholin-4-yl-phenylamino)-pyrrolo[2,3-d]pyrimidin-7-yl]-propyl}-amide]
< 100 | O=C(NCCCn1ccc2cnc(Nc3cccc(CN4CCCCC4)c3)nc21)C1CCC1 [Example 49, Cyclobutanecarboxylic acid {3-[2-(3-piperidin-1-ylmethyl-phenylamino)-pyrrolo[2,3-d]pyrimidin-7-yl]-propyl}-amide]
< 100 | O=C(NCCCn1ccc2cnc(Nc3ccc4ncccc4c3)nc21)C1CCC1 [Example 50, Cyclobutanecarboxylic acid {3-[2-(quinolin-6-ylamino)-pyrrolo[2,3-d]pyrimidin-7-yl]-propyl}-amide]
< 100 | CC(C)N1CCC(n2cc(Nc3ncc4ccn(CCCNC(=O)C5CCC5)c4n3)cn2)CC1 [Example 51, Cyclobutanecarboxylic acid (3-{2-[1-(1-isopropyl-piperidin-4-yl)-1H-pyrazol-4-ylamino]-pyrrolo[2,3-d]pyrimidin-7-yl}-propyl)-amide]
